Tests used:
rtTA2s-M2 [1] = assay: Activation of rtTA2s-M2 in vitro; type: cell-based; details: relative to doxycycline
[2] = system: tet operator-linked nucleotide sequence; details: as demonstrated in U.S. Pat. No. 5,789,156; cited from earlier work
[3] = described in Mansuy and Bujard Curr. Op. Neurobiol. 10:593-96; cited from earlier work
rtTA = details: in vitro; relative to doxycycline
rtTA2s-M2 [4] = assay: Activation of rtTA2s-M2 gene in vivo, bioluminescence of bitransgenic mice rTA M2CaMK-1/LC1; details: 0.2 mg/mL in drinking water with 5% sucrose, seven days, compared with doxycycline at 2 mg/mL
Procedure: 9-t-butyl doxycycline was tested in bitransgenic mice with rTA M2CaMK-1/LC1. The mice expressed the rtTA2s-M2 gene under control of the forebrain specific α-CamKII promoter. In addition, the LC1 mouse had luciferase and cre genes under the control of the bi-directional promoter. The mice were adminstered doxycycline (2 mg/mL) for seven days in the drinking water with 5% sucrose or with 9-t-butyl doxycycline at (0.2 and 2 mg/mL). The mice were anaesthetized with avertin and injected with […] (IP) and placed in the bioluminescence chamber and measured 5 minutes later.

rtTA2-MT2 = assay: rtTA-mediated gene activation, luciferase positive cell line MT2; type: cell-based
Excerpt: (§1) FIGS. 2A-2D show a comparison of doxycycline and 9-t-butyl doxcycline in 34R and MT2 rtTA mutants. FIGS. 2A and 2B show the effect of doxycyline on 34R and MT2 mutants, respectively. FIGS. 2C and 2D show the effect of 9-t-butyl doxycycline on 34R and MT2 mutants, respectively.

rtTA2-34R = assay: rtTA-mediated gene activation, luciferase positive cell line 34R; type: cell-based; details: FIGS. 2A and 2C
Excerpt: as §1

**Q.** With 5-phenylcarbamate doxcycline as the compound, how does the “activation of rtTA2s-M2 compared with doxycycline” value (rtTA2s-M2 [1]) read?
**A.** two fold better activiator

**Q.** Which “strength as inducing agent” value [2] does the source give for `Cc1c2c(c(O)c3c(O)cccc13)C(=O)[C@]1(O)C(=O)C(C(N)=O)=C(O)[C@@H](N(C)C)[C@@H]1C2` [anhydrotetracycline] here?
**A.** strong inducing agents

**Q.** For `C[C@H]1c2cccc(O)c2C(=O)C2=C(O)[C@]3(O)C(=O)C(C(N)=O)=C(O)[C@@H](N(C)C)[C@@H]3[C@@H](O)[C@@H]21` [doxycycline], which “penetration of the blood-brain barrier” value [3] is on record?
**A.** limited penetration of the blood-brain barrier

**Q.** For 9-t-butyl doxycycline, which “concentration inducing all rtTA's, lower than doxycycline” value (rtTA) is on record?
**A.** 10 fold

**Q.** What about the “activation response (luciferase bioluminescence)” value (rtTA2s-M2 [4]) of the same compound?
**A.** better activation response

**Q.** What about the “activity compared with doxycycline, MT2 rtTA mutant” value (rtTA2-MT2; FIGS. 2B and 2D) of the same compound?
**A.** ten times more active

**Q.** And the “concentration at which full induction of the system occurred” value (rtTA2-MT2; rtTA2-MT2 system)?
**A.** 10 ng/mL

**Q.** What about the “activity compared with doxycycline, 34R rtTA mutant” value (rtTA2-34R) of the same compound?
**A.** ten times more active

— patent publication US20090257985A1, “METHODS OF REGULATING EXPRESSION OF GENES OR OF GENE PRODUCTS USING SUBSTITUTED TETRACYCLINE COMPOUNDS” (priority 2006, published 2009)
